Assay results reported in BindingDB's records for doi:10.1016/j.bmcl.2004.06.042 (Universidad De Buenos Aires, 2004).

Biological target: Hypoxanthine-guanine phosphoribosyltransferase (Trypanosoma cruzi)
Assay: Inhibition of hypoxanthine-guanine phosphoribosyltransferase (TcHPRT)

Ki: 126 µM
Compound: CN(C)CCC(O)(P(=O)(O)O)P(=O)(O)O [hydrogen 3-(dimethylammonio)-1-hydroxy-1-(hydroxyphosphinato)propylphosphonate]
